Consider 8 molecules from US20260070945A1, “MACROCYCLIC IMMUNOMODULATORS” (Bristol-Myers Squibb Company, priority 2022, published 2026).

Where a SMILES comes first, the peptide text is derived from it. Bridges are numbered along the chain shown (N, C = ends). [ ]: non-standard residue; d: D form. The star is where a group is joined. ξ: configuration not given here. Phe(3-CF3) = N[C@@H](Cc1cccc(C(F)(F)F)c1)C(=O)O; Phe(4-CF3) = N[C@@H](Cc1ccc(C(F)(F)F)cc1)C(=O)O; Phe(4-COOH) = N[C@@H](Cc1ccc(C(=O)O)cc1)C(=O)O; Bip = N[C@@H](Cc1ccc(-c2ccccc2)cc1)C(=O)O; NH(CH2)14COOH = O=C(O)CCCCCCCCCCCCCCN*; Phe(3-Me) = Cc1cccc(C[C@H](N)C(=O)O)c1; Val(3-OH) = CC(C)(O)[C@H](N)C(=O)O; Cha = N[C@@H](CC1CCCCC1)C(=O)O; Cit = NC(=O)NCCC[C@H](N)C(=O)O; Thr(3ξ) = CC(O)[C@H](N)C(=O)O; Carboxymethyl = O=C(O)C*; NMeA = CN[C@@H](C)C(=O)O; Aun = NCCCCCCCCCCC(=O)O; Dab = NCC[C@H](N)C(=O)O; AEEA = NCCOCCOCC(=O)O

The target of this experiment is T1, PD-1/PD-L1 interaction (PE-labeled human PD-L1-Ig binding to Jurkat cell line over-expressing human PD-1) (Homo sapiens, UniProt Q15116).
T1 construct: expressed in transfected cells; host or cells: Jurkat
T1 sequence (Q15116 25-288): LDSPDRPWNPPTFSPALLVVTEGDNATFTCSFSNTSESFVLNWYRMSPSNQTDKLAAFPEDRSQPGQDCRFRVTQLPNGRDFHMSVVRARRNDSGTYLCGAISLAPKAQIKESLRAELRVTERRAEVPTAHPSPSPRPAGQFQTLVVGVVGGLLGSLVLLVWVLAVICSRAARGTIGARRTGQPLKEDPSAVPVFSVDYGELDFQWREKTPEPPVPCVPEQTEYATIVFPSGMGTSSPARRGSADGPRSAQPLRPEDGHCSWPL
Nature of the experiment: Jurkat-PD-1 Cell Binding High-Content Screening Assay (CBA). The note with it: PE-labeled PD-L1-Ig 20 nM final, Jurkat-hPD-1 cells; read-out: Jurkat HPD1 PDL1 IC50. The method in brief: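 In this imaging assay, cells in 10% FCS medium see compound for 2 h at 37 °C and then labeled ligand at 20 nM final for 1 h. Paraformaldehyde fixation, Hoechst 33342 staining and dPBS washes precede image capture.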
Usually IC50 stands for the concentration that inhibits the measured activity by half. Take `CC(=O)NCCCC[C@@H]1NC(=O)[C@H](C(C)(C)O)NC(=O)[C@H](CC2CCCCC2)NC(=O)[C@H](CCN)NC(=O)[C@@H](CC(C)C)NC(=O)[C@H](C)N(C)C(=O)[C@H](CCCNC(N)=O)NC(=O)[C@H](Cc2ccc(-c3ccccc3)cc2)NC(=O)[C@H](Cc2ccc(C(=O)O)cc2)NC(=O)[C@H](Cc2cccc(C(F)(F)F)c2)NC(=O)[C@H](CC(=O)O)NC(=O)[C@H](Cc2ccc(OCC(=O)O)cc2)NC(=O)[C@H](Cc2ccc(OCC(=O)O)cc2)NC(=O)CSC[C@@H](C(=O)N[C@@H](CCN)C(=O)NCCCCCCCCCCC(=O)O)NC1=O` [Example 2570] ({CH2CO}-Y(Carboxymethyl)Y(Carboxymethyl)D[Phe(3-CF3)][Phe(4-COOH)][Bip][Cit][NMeA][dL][Dab][Cha][Val(3-OH)]K(Ac)C[Dab][Aun]-OH; thioether N-14): the IC50 was 2.7 nM.
With `Cc1cccc(C[C@@H]2NC(=O)[C@H](CC(=O)O)NC(=O)[C@H](Cc3ccc(C(F)(F)F)cc3)NC(=O)[C@H](C(C)O)NC(=O)CSC[C@@H](C(=O)N[C@@H](CCN)C(=O)NCCCCCCCCCCC(=O)O)NC(=O)[C@H](C(C)O)NC(=O)[C@H](C(C)C)NC(=O)[C@H](CC3CCCCC3)NC(=O)[C@H](CCN)NC(=O)[C@@H](CC(C)C)NC(=O)[C@H](C)N(C)C(=O)[C@H](Cc3ccc(C(=O)O)cc3)NC(=O)[C@H](Cc3ccc(-c4ccccc4)cc3)NC(=O)[C@H](Cc3ccc(C(=O)O)cc3)NC2=O)c1` (stereo partly drawn) [Example 2571] ({CH2CO}-[Thr(3ξ)][Phe(4-CF3)]D[Phe(3-Me)][Phe(4-COOH)][Bip][Phe(4-COOH)][NMeA][dL][Dab][Cha]V[Thr(3ξ)]C[Dab][Aun]-OH; thioether N-14) the figure was 108 nM; with `CC(C)C[C@H]1NC(=O)[C@H](C)N(C)C(=O)[C@H](Cc2ccc(C(=O)O)cc2)NC(=O)[C@H](Cc2ccc(-c3ccccc3)cc2)NC(=O)[C@H](Cc2ccc(C(=O)O)cc2)NC(=O)[C@H](Cc2cccc(C(F)(F)F)c2)NC(=O)[C@H](CC(=O)O)NC(=O)[C@H](Cc2ccc(C(=O)O)cc2)NC(=O)[C@H](C(C)O)NC(=O)CSC[C@@H](C(=O)N[C@@H](CCN)C(=O)NCCCCCCCCCCC(=O)O)NC(=O)[C@H](CCC(=O)O)NC(=O)[C@H](C(C)C)NC(=O)[C@H](CC2CCCCC2)NC(=O)[C@H](CCN)NC1=O` (stereo partly drawn) [Example 2572] ({CH2CO}-[Thr(3ξ)][Phe(4-COOH)]D[Phe(3-CF3)][Phe(4-COOH)][Bip][Phe(4-COOH)][NMeA][dL][Dab][Cha]VEC[Dab][Aun]-OH; thioether N-14), 11.5 nM.
On to `CC(C)C[C@H]1NC(=O)[C@H](C)N(C)C(=O)[C@H](Cc2ccc(C(=O)O)cc2)NC(=O)[C@H](Cc2ccc(-c3ccccc3)cc2)NC(=O)[C@H](Cc2ccc(C(=O)O)cc2)NC(=O)[C@H](Cc2cccc(C(F)(F)F)c2)NC(=O)[C@H](CC(=O)O)NC(=O)[C@H](Cc2ccc(C(=O)O)cc2)NC(=O)[C@H](C(C)O)NC(=O)CSC[C@@H](C(=O)N[C@@H](CCN)C(=O)NCCCCCCCCCCC(=O)O)NC(=O)[C@H](C(C)O)NC(=O)[C@H](C(C)(C)O)NC(=O)[C@H](CC2CCCCC2)NC(=O)[C@H](CCN)NC1=O` (stereo partly drawn) [Example 2573] ({CH2CO}-[Thr(3ξ)][Phe(4-COOH)]D[Phe(3-CF3)][Phe(4-COOH)][Bip][Phe(4-COOH)][NMeA][dL][Dab][Cha][Val(3-OH)][Thr(3ξ)]C[Dab][Aun]-OH; thioether N-14), for which the IC50 was determined as 9.7 nM.
With `CC(C)C[C@H]1NC(=O)[C@H](C)N(C)C(=O)[C@H](Cc2ccc(OCC(=O)O)cc2)NC(=O)[C@H](Cc2ccc(-c3ccccc3)cc2)NC(=O)[C@H](Cc2ccc(C(=O)O)cc2)NC(=O)[C@H](Cc2cccc(C(F)(F)F)c2)NC(=O)[C@H](CC(=O)O)NC(=O)[C@H](Cc2ccc(OCC(=O)O)cc2)NC(=O)[C@H](C(C)O)NC(=O)CSC[C@@H](C(=O)N[C@@H](CCN)C(=O)NCCCCCCCCCCC(=O)O)NC(=O)[C@H](CCC(=O)O)NC(=O)[C@H](C(C)C)NC(=O)[C@H](CC2CCCCC2)NC(=O)[C@H](CCN)NC1=O` (stereo partly drawn) [Example 2574] ({CH2CO}-[Thr(3ξ)]Y(Carboxymethyl)D[Phe(3-CF3)][Phe(4-COOH)][Bip]Y(Carboxymethyl)[NMeA][dL][Dab][Cha]VEC[Dab][Aun]-OH; thioether N-14) the figure was 4.4 nM; with `CC(C)C[C@H]1NC(=O)[C@H](C)N(C)C(=O)[C@H](Cc2ccc(OCC(=O)O)cc2)NC(=O)[C@H](Cc2ccc(-c3ccccc3)cc2)NC(=O)[C@H](Cc2ccc(C(=O)O)cc2)NC(=O)[C@H](Cc2cccc(C(F)(F)F)c2)NC(=O)[C@H](CC(=O)O)NC(=O)[C@H](Cc2ccc(OCC(=O)O)cc2)NC(=O)[C@H](C(C)O)NC(=O)CSC[C@@H](C(=O)N[C@@H](CCN)C(=O)NCCCCCCCCCCC(=O)O)NC(=O)[C@H](CO)NC(=O)[C@H](C(C)(C)O)NC(=O)[C@H](CC2CCCCC2)NC(=O)[C@H](Cc2cnc[nH]2)NC1=O` (stereo partly drawn) [Example 2575] ({CH2CO}-[Thr(3ξ)]Y(Carboxymethyl)D[Phe(3-CF3)][Phe(4-COOH)][Bip]Y(Carboxymethyl)[NMeA][dL]H[Cha][Val(3-OH)]SC[Dab][Aun]-OH; thioether N-14), 29.6 nM.
With `CC(=O)NCCCC[C@@H]1NC(=O)[C@H](C(C)(C)O)NC(=O)[C@H](CC2CCCCC2)NC(=O)[C@H](CCN)NC(=O)[C@@H](CC(C)C)NC(=O)[C@H](C)N(C)C(=O)[C@H](CCC(N)=O)NC(=O)[C@H](Cc2ccc(-c3ccccc3)cc2)NC(=O)[C@H](Cc2ccc(C(=O)O)cc2)NC(=O)[C@H](Cc2cccc(C)c2)NC(=O)[C@H](CC(=O)O)NC(=O)[C@H](Cc2ccc(OCC(=O)O)cc2)NC(=O)[C@H](Cc2ccc(OCC(=O)O)cc2)NC(=O)CSC[C@@H](C(=O)N[C@@H](CCN)C(=O)NCCOCCOCC(=O)NCCCCCCCCCCCCCCC(=O)O)NC1=O` [Example 2576] ({CH2CO}-Y(Carboxymethyl)Y(Carboxymethyl)D[Phe(3-Me)][Phe(4-COOH)][Bip]Q[NMeA][dL][Dab][Cha][Val(3-OH)]K(Ac)C[Dab][AEEA]-{NH(CH2)14COOH}; thioether N-14) the figure was 103 nM.
Regarding `CC(=O)NCCCC[C@@H]1NC(=O)[C@H](C(C)(C)O)NC(=O)[C@H](CC2CCCCC2)NC(=O)[C@H](CCN)NC(=O)[C@@H](CC(C)C)NC(=O)[C@H](C)N(C)C(=O)[C@H](CCC(N)=O)NC(=O)[C@H](Cc2ccc(-c3ccccc3)cc2)NC(=O)[C@H](Cc2ccc(C(=O)O)cc2)NC(=O)[C@H](Cc2cccc(C)c2)NC(=O)[C@H](CC(=O)O)NC(=O)[C@H](Cc2ccc(OCC(=O)O)cc2)NC(=O)[C@H](Cc2ccc(OCC(=O)O)cc2)NC(=O)CSC[C@@H](C(=O)N[C@@H](CCN)C(=O)NCCOCCOCC(=O)N[C@@H](CCC(=O)NCCCCCCCCCCCCCCC(=O)O)C(=O)O)NC1=O` [Example 2577] ({CH2CO}-Y(Carboxymethyl)Y(Carboxymethyl)D[Phe(3-Me)][Phe(4-COOH)][Bip]Q[NMeA][dL][Dab][Cha][Val(3-OH)]K(Ac)C[Dab][AEEA]E(NH(CH2)14COOH)-OH; thioether N-14), the IC50 was found to be 46.9 nM.
